Target: T1, MLLT1 (Homo sapiens, UniProt Q03111)
T1 construct: host or cells: MV4-11
T1 sequence (Q03111 1-559): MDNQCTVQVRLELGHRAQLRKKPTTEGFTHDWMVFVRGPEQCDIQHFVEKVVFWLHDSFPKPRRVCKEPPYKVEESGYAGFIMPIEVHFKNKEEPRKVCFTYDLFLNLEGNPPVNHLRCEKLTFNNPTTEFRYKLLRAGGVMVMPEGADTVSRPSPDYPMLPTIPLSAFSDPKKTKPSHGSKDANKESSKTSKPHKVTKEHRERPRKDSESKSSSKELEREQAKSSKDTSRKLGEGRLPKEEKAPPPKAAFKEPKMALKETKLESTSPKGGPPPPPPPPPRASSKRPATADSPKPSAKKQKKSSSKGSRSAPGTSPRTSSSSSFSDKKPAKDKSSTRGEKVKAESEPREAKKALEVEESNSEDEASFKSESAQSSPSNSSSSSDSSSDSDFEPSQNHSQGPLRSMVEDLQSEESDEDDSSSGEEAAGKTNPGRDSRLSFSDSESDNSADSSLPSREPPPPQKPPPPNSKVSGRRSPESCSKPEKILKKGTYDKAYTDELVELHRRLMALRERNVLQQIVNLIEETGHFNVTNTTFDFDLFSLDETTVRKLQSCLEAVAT
Experiment: MLLT1 degradation assay in MV4-11 cells (JESS chemiluminescent detection), three concentrations, 24 h
Type: cell-based
Settings: with respect to DMSO control
In short: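 MV4-11 cells treated 24 h at 37° C, 5% CO2 with 1000, 100 and 10 nM compound (0.1% DMSO final). MLLT1 quantified by automated capillary chemiluminescent immunodetection; band peak area expressed as % degradation relative to DMSO control.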

| Compound | MLLT1% Degradation @ 0.01 μM | MLLT1% Degradation @ 0.1 μM | MLLT1% Degradation @ 1 μM |
| --- | --- | --- | --- |
| CN1CCC[C@@H]1c1cc2cnc(NC(=O)c3ccc(N4CC[C@H](CC#Cc5cccc6c5CN(C5CCC(=O)NC5=O)C6=O)C4)nc3)cc2[nH]1 (stereo partly drawn) [Example 187, 6-((3S)-3-(3-(2-(2,6-dioxopiperidin-3-yl)-1-oxoisoindolin-4-yl)prop-2-yn-1-yl)pyrrolidin-1-yl)-N-(2-((R)-1-methylpyrrolidin-2-yl)-1H-pyrrolo[3,2-c]pyridin-6-yl)nicotinamide] | B (Category B: 50% ≤ B < 75% degradation) | B (Category B: 50% ≤ B < 75% degradation) | B (Category B: 50% ≤ B < 75% degradation) |
| CN1CCC[C@@H]1c1cc2cnc(NC(=O)CCCCCCCCNc3cccc4c3C(=O)N(C3CCC(=O)NC3=O)C4=O)cc2[nH]1 (stereo partly drawn) [Example 30, 9-{[2-(2,6-dioxopiperidin-3-yl)-1,3-dioxoisoindol-4-yl]amino}-N-{2-[(2R)-1-methylpyrrolidin-2-yl]-1H-pyrrolo[3,2-c]pyridin-6-yl}nonanamide] | C (Category C: 25% ≤ C < 50% degradation) | B (Category B: 50% ≤ B < 75% degradation) | A (Category A: A ≥ 75% degradation) |
| CN1CCC[C@@H]1c1cc2cnc(NC(=O)c3ccc(CCCC#Cc4cc5c(cc4F)C(=O)N(C4CCC(=O)NC4=O)C5)cc3)cc2[nH]1 (stereo partly drawn) [Example 106, 4-(5-(2-(2,6-dioxopiperidin-3-yl)-6-fluoro-1-oxoisoindolin-5-yl)pent-4-yn-1-yl)-N-(2-((R)-1-methylpyrrolidin-2-yl)-1H-pyrrolo[3,2-c]pyridin-6-yl)benzamide] | B (Category B: 50% ≤ B < 75% degradation) | A (Category A: A ≥ 75% degradation) | A (Category A: A ≥ 75% degradation) |
| CN1CCC[C@@H]1c1cc2cnc(NC(=O)c3ccc(CCCC#Cc4cccc(C(=O)N[C@H]5CCC(=O)NC5=O)c4F)cc3)cc2[nH]1 [Example 219, N—((S)-2,6-dioxopiperidin-3-yl)-2-fluoro-3-(5-(4-((2-((R)-1-methylpyrrolidin-2-yl)-1H-pyrrolo[3,2-c]pyridin-6-yl)carbamoyl)phenyl)pent-1-yn-1-yl)benzamide] | A (Category A: A ≥ 75% degradation) | A (Category A: A ≥ 75% degradation) | B (Category B: 50% ≤ B < 75% degradation) |
| CN1CCC[C@@H]1c1cc2cnc(NC(=O)c3ccc(OC4CCN(CC5CCN(c6cc7c(cc6F)C(=O)N(C6CCC(=O)NC6=O)C7=O)CC5)CC4)cc3)cc2[nH]1 (stereo partly drawn) [Example 184, 4-((1-((1-(2-(2,6-dioxopiperidin-3-yl)-6-fluoro-1,3-dioxoisoindolin-5-yl)piperidin-4-yl)methyl)piperidin-4-yl)oxy)-N-(2-((R)-1-methylpyrrolidin-2-yl)-1H-pyrrolo[3,2-c]pyridin-6-yl)benzamide] | B (Category B: 50% ≤ B < 75% degradation) | A (Category A: A ≥ 75% degradation) | A (Category A: A ≥ 75% degradation) |
| Cc1ncsc1-c1ccc(CNC(=O)[C@@H]2C[C@@H](O)CN2C(=O)[C@@H](NC(=O)CCCCCCCCCCNC(=O)c2ccc(C(=O)Nc3cc4[nH]c([C@H]5CCCN5C)cc4cn3)cc2)C(C)(C)C)cc1 [Example 69, (2S,4R)-1-[(2S)-3,3-dimethyl-2-(11-{[4-({2-[(2R)-1-methylpyrrolidin-2-yl]-1H-pyrrolo[3,2-c]pyridin-6-yl}carbamoyl)phenyl]formamido}undecanamido)butanoyl]-4-hydroxy-N-{[4-(4-methyl-1,3-thiazol-5-yl)phenyl]methyl}pyrrolidine-2-carboxamide] | C (Category C: 25% ≤ C < 50% degradation) | C (Category C: 25% ≤ C < 50% degradation) | C (Category C: 25% ≤ C < 50% degradation) |
| CN1CCC[C@@H]1c1cc2cnc(NC(=O)c3ccc(OC4CC5(CCN(c6cccc7c6CN(C6CCC(=O)NC6=O)C7=O)CC5)C4)cc3F)cc2[nH]1 (stereo partly drawn) [Example 200, 4-((7-(2-(2,6-dioxopiperidin-3-yl)-1-oxoisoindolin-4-yl)-7-azaspiro[3.5]nonan-2-yl)oxy)-2-fluoro-N-(2-((R)-1-methylpyrrolidin-2-yl)-1H-pyrrolo[3,2-c]pyridin-6-yl)benzamide] | B (Category B: 50% ≤ B < 75% degradation) | A (Category A: A ≥ 75% degradation) | A (Category A: A ≥ 75% degradation) |
| CN1CCC[C@@H]1c1cc2cnc(NC(=O)c3ccc(CCCC#Cc4cccc(C(=O)N[C@H]5CCC(=O)NC5=O)n4)cc3)cc2[nH]1 [Example 97, N—((S)-2,6-dioxopiperidin-3-yl)-6-(5-(4-((2-((R)-1-methylpyrrolidin-2-yl)-1H-pyrrolo[3,2-c]pyridin-6-yl)carbamoyl)phenyl)pent-1-yn-1-yl)picolinamide] | C (Category C: 25% ≤ C < 50% degradation) | B (Category B: 50% ≤ B < 75% degradation) | B (Category B: 50% ≤ B < 75% degradation) |
| CN1CCC[C@@H]1c1cc2cnc(NC(=O)c3ccc(CCCCC#Cc4cc5c(cc4F)C(=O)N(C4CCC(=O)NC4=O)C5)cc3F)cc2[nH]1 (stereo partly drawn) [Example 114, 4-(6-(2-(2,6-dioxopiperidin-3-yl)-6-fluoro-1-oxoisoindolin-5-yl)hex-5-yn-1-yl)-2-fluoro-N-(2-((R)-1-methylpyrrolidin-2-yl)-1H-pyrrolo[3,2-c]pyridin-6-yl)benzamide] | D (Category D: D < 25% degradation) | C (Category C: 25% ≤ C < 50% degradation) | C (Category C: 25% ≤ C < 50% degradation) |
| C[C@H]1CN(CC2CCN(c3cccc4c3CN(C3CCC(=O)NC3=O)C4=O)CC2)CCN1c1ccc(C(=O)Nc2cc3[nH]c([C@H]4CCCN4C)cc3cn2)cn1 (stereo partly drawn) [Example 127, 6-((2S)-4-((1-(2-(2,6-dioxopiperidin-3-yl)-1-oxoisoindolin-4-yl)piperidin-4-yl)methyl)-2-methylpiperazin-1-yl)-N-(2-((R)-1-methylpyrrolidin-2-yl)-1H-pyrrolo[3,2-c]pyridin-6-yl)nicotinamide] | B (Category B: 50% ≤ B < 75% degradation) | B (Category B: 50% ≤ B < 75% degradation) | B (Category B: 50% ≤ B < 75% degradation) |
| CN1CCC[C@@H]1c1cc2cnc(NC(=O)c3ccc(OCCC4CCN(c5cccc6c5CN(C5CCC(=O)NC5=O)C6=O)CC4)cc3Cl)cc2[nH]1 (stereo partly drawn) [Example 205, 2-chloro-4-(2-(1-(2-(2,6-dioxopiperidin-3-yl)-1-oxoisoindolin-4-yl)piperidin-4-yl)ethoxy)-N-(2-((R)-1-methylpyrrolidin-2-yl)-1H-pyrrolo[3,2-c]pyridin-6-yl)benzamide] | B (Category B: 50% ≤ B < 75% degradation) | A (Category A: A ≥ 75% degradation) | A (Category A: A ≥ 75% degradation) |
| CN1CCC[C@@H]1c1cc2cnc(NC(=O)c3ccc(N4CC(CN5CCN(c6ccc7c(c6)C(=O)N(C6CCC(=O)NC6=O)C7=O)CC5)C4)cc3)cc2[nH]1 (stereo partly drawn) [Example 183, 4-(3-((4-(2-(2,6-dioxopiperidin-3-yl)-1,3-dioxoisoindolin-5-yl)piperazin-1-yl)methyl)azetidin-1-yl)-N-(2-((R)-1-methylpyrrolidin-2-yl)-1H-pyrrolo[3,2-c]pyridin-6-yl)benzamide] | C (Category C: 25% ≤ C < 50% degradation) | B (Category B: 50% ≤ B < 75% degradation) | B (Category B: 50% ≤ B < 75% degradation) |
| CN1CCC[C@@H]1c1cc2cnc(NC(=O)c3cccc(N4CCN(CC5CCN(c6ccc7c(c6)C(=O)N(C6CCC(=O)NC6=O)C7=O)CC5)CC4)c3)cc2[nH]1 (stereo partly drawn) [Example 220, 3-(4-((1-(2-(2,6-dioxopiperidin-3-yl)-1,3-dioxoisoindolin-5-yl)piperidin-4-yl)methyl)piperazin-1-yl)-N-(2-((R)-1-methylpyrrolidin-2-yl)-1H-pyrrolo[3,2-c]pyridin-6-yl)benzamide] | D (Category D: D < 25% degradation) | C (Category C: 25% ≤ C < 50% degradation) | B (Category B: 50% ≤ B < 75% degradation) |
| CN1CCC[C@@H]1c1cc2cnc(NC(=O)c3ccc(OCCC4CCN(c5cccc6c5C(=O)N(C5CCC(=O)NC5=O)C6=O)CC4)cc3F)cc2[nH]1 (stereo partly drawn) [Example 217, 4-(2-(1-(2-(2,6-dioxopiperidin-3-yl)-1,3-dioxoisoindolin-4-yl)piperidin-4-yl)ethoxy)-2-fluoro-N-(2-((R)-1-methylpyrrolidin-2-yl)-1H-pyrrolo[3,2-c]pyridin-6-yl)benzamide] | C (Category C: 25% ≤ C < 50% degradation) | A (Category A: A ≥ 75% degradation) | A (Category A: A ≥ 75% degradation) |
